{"source": "patent US20080305186A1", "about": "“Method and Composition for the Treatment of Cardiac Hypertrophy” (BOARD OF REGENTS, THE UNIVERSITY OF TEXAS SYSTEM, priority 2007, published 2008)", "tested_on": "cardiac gene expression", "test": "Microarray analysis of cardiac gene expression (GeneChip Mouse Genome 430 2.0)", "format": "in vivo, mice", "experimental": "Microarray Sample Preparation and Analysis. Animal hearts were rapidly removed, and the atria and right ventricles were cut and immediately plunged into TRIzol Reagent (Life Technologies). Total RNA was isolated following the manufacturer's instructions, purified by phenol-chloroform extraction and then ethanol precipitation, and 20 μg further processed for microarray analysis. Briefly, cDNA synthesis, in vitro transcription, and labeling and fragmentation to produce the oligonucleotide probes were performed as instructed by the GeneChip manufacturer (Affymetrix). The probes were first hybridized to a test array (Affymetrix) and then to the GeneChip Mouse Genome 430 2.0 Array, using the GeneChip Hybridization Oven 640. The chips were washed in a GeneChip Fluidics Station 450 (Affymetrix), and the results were visualized with a GeneChip G7 scanner (Affymetrix). RMA normalization, pairwise comparisons, Student's t test and Benjamini and Hochberg correction were subsequently performed using GeneSifter (VizX Labs, Seattle, Wash.) and Spotfire DecisionSite 8.3 (Spotfire, Inc., Somerville, Mass.).\nEffects on Gene Expression Profile. […] One mouse heart was used for each array, and was performed in triplicate, generating a total of 12 arrays. GeneSifter was used to perform RMA normalization, pairwise comparisons of averaged signal intensity values, and Student's t-test with Benjamini and Hochberg correction, and Spotfire was used to perform pairwise comparisons. […] Additionally, genes that were altered between any two N or cardiac hypertrophy samples were removed, as these alterations most likely represented normal variations between mice.", "key": {"[1]": {"conditions": "mouse heart, vs isoproterenol only (CH), CH vs normal 7.4"}, "[2]": {"conditions": "mouse heart, vs isoproterenol only (CH), CH vs normal −1.7"}, "[3]": {"conditions": "mouse heart, vs isoproterenol only (CH), CH vs normal −1.8"}, "[4]": {"conditions": "mouse heart, vs isoproterenol only (CH), CH vs normal −1.9"}, "[5]": {"conditions": "mouse heart, vs isoproterenol only (CH), CH vs normal −2.0"}, "[6]": {"conditions": "mouse heart, vs isoproterenol only (CH), CH vs normal −2.1"}, "[7]": {"conditions": "mouse heart, vs isoproterenol only (CH), CH vs normal −2.4"}, "[8]": {"conditions": "mouse heart, vs isoproterenol only (CH), CH vs normal −2.5"}, "[9]": {"conditions": "mouse heart, vs isoproterenol only (CH), CH vs normal −2.6"}, "[10]": {"conditions": "mouse heart, vs isoproterenol only (CH), CH vs normal −2.7"}, "[11]": {"conditions": "mouse heart, vs isoproterenol only (CH), CH vs normal −2.9"}, "[12]": {"conditions": "mouse heart, vs isoproterenol only (CH), CH vs normal −3.0"}, "[13]": {"conditions": "mouse heart, vs isoproterenol only (CH), CH vs normal −3.2"}, "[14]": {"conditions": "mouse heart, vs isoproterenol only (CH), CH vs normal −3.3"}}, "data": [{"smiles": "NC(=O)N1c2ccccc2C=Cc2ccccc21", "note": "[carbamazepine]", "values": [{"measurement": "FC Membrane-spanning 4-domains, subfamily A, member 6d (Ms4a6d), NM_026835", "setting": "mouse heart, vs isoproterenol only (CH), CH vs normal 6.4", "value": "−1.6", "unit": "fold"}, {"measurement": "FC Proteoglycan 4 (megakaryocyte stimulating factor, articular superficial zone protein) (Prg4), NM_021400", "setting": "mouse heart, vs isoproterenol only (CH), CH vs normal 6.8", "value": "−1.5", "unit": "fold"}, {"measurement": "FC CCAATenhaer binding protein (CEBP), delta (Cebpd), BB831146", "setting": "[1]", "value": "−1.6", "unit": "fold"}, {"measurement": "FC Ca(2+)-sensitive chloride channel 2 (Clca2), AF108501", "setting": "[1]", "value": "−2.0", "unit": "fold"}, {"measurement": "FC Lysyl oxidase (Lox), M65143", "setting": "[1]", "value": "−2.1", "unit": "fold"}, {"measurement": "FC Cytokine inducible SH2-containing protein 3 (Socs3), BB831725", "setting": "mouse heart, vs isoproterenol only (CH), CH vs normal 8.2", "value": "−2.4", "unit": "fold"}, {"measurement": "FC C-type (calcium dependent, carbohydrate recognition domain) lectin, superfamily member 8 (Clecsf8), NM_010819", "setting": "mouse heart, vs isoproterenol only (CH), CH vs normal 10.8", "value": "−1.7", "unit": "fold"}, {"measurement": "FC Lysyl oxidase (Lox), NM_010728", "setting": "mouse heart, vs isoproterenol only (CH), CH vs normal 11.1", "value": "−2.4", "unit": "fold"}, {"measurement": "FC FK506 binding protein 5 (51 kDa) (Fkbp5), BC015260", "setting": "mouse heart, vs isoproterenol only (CH), CH vs normal 16.3", "value": "−1.6", "unit": "fold"}, {"measurement": "FC Lipocalin 2 (Lcn2), X14607", "setting": "mouse heart, vs isoproterenol only (CH), CH vs normal 27.7", "value": "−1.6", "unit": "fold"}, {"measurement": "FC Serine protease inhibitor 2-2 (Spi2-2) (Serpin3n), NM_009252", "setting": "mouse heart, vs isoproterenol only (CH), CH vs normal 40.5", "value": "−2.3", "unit": "fold"}, {"measurement": "FC Metallophosphoesterase domain containing 2 (Mpped2), AK012553", "setting": "mouse heart, vs isoproterenol only (CH), CH vs normal −1.5", "value": 1.6, "unit": "fold"}, {"measurement": "FC cDNA, BM229539", "setting": "mouse heart, vs isoproterenol only (CH), CH vs normal −1.6", "value": 1.6, "unit": "fold"}, {"measurement": "FC Cytoplasmic polyadenylation element binding protein 3 (Cpeb3), BB281000", "setting": "[2]", "value": 1.8, "unit": "fold"}, {"measurement": "FC EphrinB3 (Efnb3), BQ175608", "setting": "[2]", "value": 1.5, "unit": "fold"}, {"measurement": "FC Nuclear factor IB (Nfib), BB092799", "setting": "[2]", "value": 2.0, "unit": "fold"}, {"measurement": "FC Preimplantation protein 4 (Prei4), BB550273", "setting": "[2]", "value": 1.7, "unit": "fold"}, {"measurement": "FC Triple futional domain (PTPRF interacting) (Trio), BB794936", "setting": "[2]", "value": 1.7, "unit": "fold"}, {"measurement": "FC EST, BB126796", "setting": "[3]", "value": 2.2, "unit": "fold"}, {"measurement": "FC EST, BB451134", "setting": "[3]", "value": 2.2, "unit": "fold"}, {"measurement": "FC Metastasis suppressor 1 (Mtss1), BB326749", "setting": "[3]", "value": 1.6, "unit": "fold"}, {"measurement": "FC Tetratricopeptide repeat domain (Ttc3), BB833716", "setting": "[3]", "value": 2.0, "unit": "fold"}, {"measurement": "FC EST, BM941198", "setting": "[4]", "value": 1.7, "unit": "fold"}, {"measurement": "FC Jumonji, AT rich interactive domain 1A (Rbp2 like) (Jarid1a), BB376407", "setting": "[4]", "value": 1.8, "unit": "fold"}, {"measurement": "FC Guanine nucleotide binding protein, alpha 12 (Gna12), NM_010302", "setting": "[5]", "value": 1.6, "unit": "fold"}, {"measurement": "FC Zi finger and BTB domain containing 20 (Zbtb20), BB175650", "setting": "[5]", "value": 1.9, "unit": "fold"}, {"measurement": "FC C1q and tumor necrosis factor related protein 4 (C1qtnf4), NM_026161", "setting": "[6]", "value": 1.5, "unit": "fold"}, {"measurement": "FC Cold inducible RNA binding protein (Cirbp), NM_007705", "setting": "[6]", "value": 2.1, "unit": "fold"}, {"measurement": "FC Adrenergic receptor, alpha 1b (Adra1b), NM_007416", "setting": "mouse heart, vs isoproterenol only (CH), CH vs normal −2.3", "value": 1.6, "unit": "fold"}, {"measurement": "FC DNA segment, Chr 9, ERATO Doi 256, expressed, BG066667", "setting": "[7]", "value": 1.8, "unit": "fold"}, {"measurement": "FC Insulin degrading enzyme (Ide), AK014703", "setting": "[7]", "value": 1.9, "unit": "fold"}, {"measurement": "FC Sno, strawbeny notch homolog 1 (Sno1), BE947961", "setting": "[7]", "value": 1.6, "unit": "fold"}, {"measurement": "FC B-cell translocation gene 2, anti-proliferative (Btg2), BG965405", "setting": "[8]", "value": 1.8, "unit": "fold"}, {"measurement": "FC cDNA, BC026793", "setting": "[8]", "value": 1.8, "unit": "fold"}, {"measurement": "FC Desmoglein 2 (Dsg2), AB072269", "setting": "[9]", "value": 2.5, "unit": "fold"}, {"measurement": "FC Heat shock protein, 84 kDa 1 (Hsp90ab1), BI154147", "setting": "[9]", "value": 3.7, "unit": "fold"}, {"measurement": "FC Myocyte enhaer factor 2C (Mef2c), AI595932", "setting": "[9]", "value": 1.9, "unit": "fold"}, {"measurement": "FC Restin-like 2 (Rsnl2), AK018895", "setting": "[9]", "value": 1.9, "unit": "fold"}, {"measurement": "FC Jumonji domain containing 3 (Jmjd3), AW763746", "setting": "[10]", "value": 1.9, "unit": "fold"}, {"measurement": "FC cDNA (similar to integrin beta 1 binding protein 3), AK009897", "setting": "[10]", "value": 2.7, "unit": "fold"}, {"measurement": "FC Karyopherin (importin) beta 1 (Kpnb1), AW544889", "setting": "mouse heart, vs isoproterenol only (CH), CH vs normal −2.8", "value": 2.3, "unit": "fold"}, {"measurement": "FC PPAR gamma coactivator-1beta protein (Ppargc1b), NM_133249", "setting": "[11]", "value": 2.0, "unit": "fold"}, {"measurement": "FC SET and MYND domain containing 1 (Smyd1), NM_009762", "setting": "[11]", "value": 1.7, "unit": "fold"}, {"measurement": "FC Dual specificity phosphatase 8 (Dusp8), NM_008748", "setting": "[12]", "value": 1.8, "unit": "fold"}, {"measurement": "FC GATA binding protein 4 (Gata4), NM_008092", "setting": "[12]", "value": 2.1, "unit": "fold"}, {"measurement": "FC Actin, beta, cytoplasmic (Actb), AW537707", "setting": "[13]", "value": 1.7, "unit": "fold"}, {"measurement": "FC Methionine sulfoxide reductase B3 (Msrb3), BB277041", "setting": "[13]", "value": 1.7, "unit": "fold"}, {"measurement": "FC Thymoma viral proto-oogene 1 (Akt1), M94335", "setting": "[14]", "value": 1.6, "unit": "fold"}, {"measurement": "FC cDNA, BB283973", "setting": "[14]", "value": 1.9, "unit": "fold"}, {"measurement": "FC cDNA, BB534971", "setting": "mouse heart, vs isoproterenol only (CH), CH vs normal −3.5", "value": 1.6, "unit": "fold"}, {"measurement": "FC cDNA, BB026304", "setting": "mouse heart, vs isoproterenol only (CH), CH vs normal −3.8", "value": 2.5, "unit": "fold"}, {"measurement": "FC Kinesin-like protein (Kif1b), D17577", "setting": "mouse heart, vs isoproterenol only (CH), CH vs normal −3.9", "value": 1.6, "unit": "fold"}, {"measurement": "FC Kv channel-interacting protein 2a (Kcnip2), AF439339", "setting": "mouse heart, vs isoproterenol only (CH), CH vs normal −4.4", "value": 2.6, "unit": "fold"}, {"measurement": "FC Potassium voltage-gated channel, Isk-related subfamily, member 1 (Kcne1), NM_008424", "setting": "mouse heart, vs isoproterenol only (CH), CH vs normal −4.6", "value": 1.5, "unit": "fold"}, {"measurement": "FC Tumor rejection antigen gp96 (Tra1); heat shock protein 90 kDa beta (Grp94), member 1 (Hsp90b1), BE995678", "setting": "mouse heart, vs isoproterenol only (CH), CH vs normal −9.4", "value": 2.7, "unit": "fold"}, {"measurement": "FC Cadherin 13 (Cdh13), AK016527", "setting": "mouse heart, vs isoproterenol only (CH), CH vs normal −10.0", "value": 5.9, "unit": "fold"}, {"measurement": "number of the 472 cardiac hypertrophy-specific Combo-altered genes also altered by the drug alone", "setting": "statistical parameters lifted (average fold-changes irrespective of statistical measures)", "value": 98}, {"measurement": "G7e protein gene, fold-change", "setting": "the only gene significantly altered", "value": "−2.2", "unit": "fold"}]}]}
